Measurements from PMC12019328, “Discovery of an ApoE4-targeted small-molecule SirT1 enhancer for the treatment of Alzheimer’s disease” (Scientific Reports, 2025).
“Also recorded” adds a separate entry of the source.

Key:
[1] = test system: PPP2r5e mRNA in Kelly cells; assay: PPP2r5e mRNA in Kelly neuroblastoma cells; assay type: cell-based, human; details: 5 µM, 24 h, vs DMSO
Description: (§1) Human neuroblastoma ‘Kelly’ cells (genotype APOE3/APOE4) were plated in 96-well plates at 50K cells per well and were grown overnight in RPMI 1640 supplemented with 2 mM Glutamine, 10% FBS and 1% Pen-Strep. Cells were treated with 5 µM DDL-214, -218, or -219; or DMSO vehicle (n = 8 per compound). Twenty-four hours later, medium was removed, cells washed and lysed as described above for N2a-E4 cells.
(§2) Total RNA was isolated from cells or brain tissue (Qiagen RNEasy kit). Total RNA (0.5–1.0 µg) mRNA was then converted to cDNA (SuperScript™ III First-Strand Synthesis SuperMix kit; Thermo Fisher), and gene mRNA levels were measured using a gene-specific qRT-PCR Taqman assays (Thermo Fisher). Gene mRNA levels were normalized to GAPDH mRNA levels measured either in the same cDNA sample or in the same qPCR reaction using multiplexing of gene-of-interest/VIC and GAPDH/FAM, normalized by the delta-delta-Ct method.

[2] = Observation of mice behavior in the PK study; assay type: in vivo; details: oral gavage 10 or 30 mg/Kg
Description: C57BL/6J mice were administered DDL-214, -218, or -219 (n = 3 per compound) by oral gavage at a dose of 30 mg/kg in a volume of 5 mL/Kg based on mouse weight. One hour later, mice were euthanized by pentobarbital over-anesthesia and trans-cardial collection of blood for isolation of plasma by centrifugation at 10,000 x g for 10 min at 4 °C. Brain tissue was collected for analysis, frozen on dry ice and stored at -80 °C before analysis.

SirT1 promoter = assay: ChIP analysis of SirT1 promoter occupancy in brain tissue of ApoE4-TR:5xFAD mice; assay type: in vivo; details: vs Veh
Description: 17-371) following manufacturer's instructions. Brain was frozen to -80C, then powdered on dry
ice and split for either RNA analysis or for the ChIP assay, approximately ~100mg powderized
tissue was fixed in formaldehyde. For cultured cells in vitro, cells were fixed in each well and
harvested by scraping. Samples were sonicated to break chromatin into 200-1000bp fragments
(according to previously optimized conditions), using a Epishear programmable sonicator (Active
Motif), and aliquots were subjected to immunoprecipitation with antibodies against either apoE4
(Novus), RNA Polymerase (supplied in the Ez-ChIP kit), or mouse IgG (isotype matched).
Immunoprecipitated chromatin was subjected to conditions that reversed the cross-links, and
DNA was purified. The immunoprecipitated DNA was measured for the level of immuno-captured
SirT1 gene promoter sequence using qPCR with PCR primers that bind flanking the SirT1 CLEAR
sequence. PCR produced an amplicon of 125bp with the CLEAR site near one end, the CLEAR
sequence is bold underlined in the following 125bp PCR amplicon:
PCR amplification Ct values for apoE4 and RNAP were normalized to the levels obtained for
IgG and further normalized to the level of input DNA. This level of immuno-captured DNA indicates
the level of apoE4 or RNAP occupancy of CLEAR site region of the SirT1 gene promoter.
Figure S7. SirT1 promoter binding by RNA polymerase and ApoE4. […]

PRMT5 mRNA = assay: Hippocampal PRMT5 mRNA in ApoE4-TR:5xFAD mice; assay type: in vivo; details: 20 mg/Kg BID, 56 days, vs vehicle
Description: The active (-) enantiomer, DDL-218, underwent efficacy testing in ApoE4-TR:5xFAD mice[27] that were 6-7.5 months old at the start of treatment. ApoE4-TR:5xFAD male and female mice received either 20 mg/Kg DDL-218 BID (~ 8- to10-hour interval; total daily dose of 40 mkd) on weekdays and a single 40 mg/Kg dose on weekends (n = 12) or vehicle-only (n = 11); 8 C57BL/6 mice received vehicle-only as behavioral controls. Dosing was by the oral route and by oral feeding using a pipette as previously described, not gavage, as it is safer for repeated oral dosing than gavage. The dose of 20 mg/kg BID (40 mkd) was selected based on findings from PK analysis and was the highest feasible in the formulation used for oral feeding (compound is first solubilized in water, then mixed strawberry syrup diluted in water, for a final vehicle that is 25% syrup and 75% water). […]
as §2

[3] = test system: PRMT5 mRNA in Kelly cells; assay: PRMT5 mRNA in Kelly neuroblastoma cells; assay type: cell-based, human; details: 5 µM, 24 h, vs DMSO
Description: as §1, §2

[4] = test system: SirT1 mRNA in N2a-E4 cells; assay: SirT1 mRNA in N2a-E4 cells (qRT-PCR); assay type: cell-based, murine; details: 5 µM, 24 h, normalized to GAPDH and DMSO
Description: Relative SirT1 mRNA and protein enhancement by racemate DDL-214 and enantiomers DDL-218 and − 219 was determined in murine neuroblastoma cells stably transfected with ApoE4 (N2a-E4)[25]. All test compounds in DMSO were prepared at 2x the final concentration in DMEM supplemented with 10% fetal bovine serum (FBS) and 1% pen-strep (PS) and 50 µL of each loaded into individual wells of a 96-well plate. Previously cultured N2a-E4 were then trypsinized, harvested, centrifuged, and counted; then 50 µL of cell suspension adjusted to 400 cells/µL was added to each well. The plate was then incubated at 37 °C, 5% CO2 for 48 h. Cells were treated with DDL-214, DDL-218, or DDL-219 at 5 µM final then incubated for 24 h. […]
as §2

SMILES: CC(N)C(=O)OC(C)(C)Cc1ccncc1 (stereo not shown) [DDL-218]
- PPP2r5e mRNA [1]: significantly increased
- changes in mice behavior indicative of drug-induced toxicity [2]: No notable changes in mice behavior
- ApoE4 binding to the SirT1 promoter (SirT1 promoter): lower, but the effect was not significant
- RNAP binding to the SirT1 promoter (SirT1 promoter): significantly increased
- hippocampal PRMT5 mRNA (PRMT5 mRNA): significantly increased
- PRMT5 expression (mRNA) [3]: significantly increases PRMT5 expression
- SirT1 mRNA [4]: greatest increase; also recorded: significantly increased SirT1 mRNA
